Assay results: patent US9861640B2, “Medicament for treatment of Alzheimer's disease” (KEMPHYS LTD., priority 2013, dated 2018)

Columns and labels:
[1] = tested on: NEP; experiment: Immunoblot of NEP in brains of APP23 mice; type: in vivo, mouse; details: Am80 0.5 and/or HX630 5 mg/kg/d, day 18, vs vehicle-treated mice
Description: APP23 mice begin forming amyloid deposits when they are 6 months old, but memory deficits in the MWM test appear quite early (before 3 months of age). Here, we used 8.5-month-old male APP23 mice and their WT littermates (C57BL/6J). We used stratified random sampling to divide mice (four to six per cage) into four groups to equalize the mean body weight of the study groups: mice given 0.5 mg/kg/d Am80, those given 5 mg/kg/d HX630, those given the mixture of 0.5 mg/kg/d Am80 and 5 mg/kg/d HX630, and those given the vehicle. Am80 and HX630 were suspended in 0.5% (w/v) carboxymethylcellulose solution and were orally administered to mice at 0.5 mg/kg (Am80) or 5 mg/kg (HX630) for 17 consecutive days (once daily at 18:00). Control animals received the same volume of 0.5% (w/v) carboxymethylcellulose solution orally, without the other compounds. We set the 0.5 mg/kg/d dose for Am80 on the basis that this had been found effective in other in vivo studies, such as those by Kawahara et al. and Ishido and Shudo [37]. Higher doses of Am80 (3 mg/kg/d and 6 mg/kg/d) were also orally administered to mice for 17 consecutive days. Animals were weighed once a week. Mice were subjected to behavioral testing on days 15-18 of the first oral administration of the compounds (at 19:00-23:00). On days 15-17 (not day 18), animals received the compounds at 24:00, after behavioral testing. […]

[2] = tested on: IL-4Rα; experiment: Immunoblot of IL-4Rα in MG5 cells; type: cell-based, mouse; details: 5 μM each, 48 h
Description: Primary microglia (type 1) were harvested from primary mixed glial cell cultures prepared from neonatal Wistar rat pups, as previously reported. Mouse microglial cell line MG5 and mouse glial cell line A1 were maintained as previously described. Mouse neuroblastoma cell line N1E-115 and Neuro 2a (American Type Culture Collection, Manassas, Va., USA) were maintained in Dulbecco's modified Eagle's medium (DMEM) supplemented with 10% fetal bovine serum (FBS), 20 U/ml penicillin (Invitrogen, Gaithersburg, Md., USA), and 20 μg/ml streptomycin (Invitrogen). Primary rat microglia were treated with Am80 (5 μM) and/or HX630 (5 μM) in the presence and absence of GW9662 (10 μM) for 48 h in Eagle's MEM supplemented with 10% FBS and 0.2% glucose. MG5 cells and A1 cells were treated with Am80 (5 μM) and/or HX630 (5 μM) for 48 h in DMEM containing 10% FBS. […]
Rat primary microglia and mouse microglial MG5 cells (5×10^6 cells per 100-mm dish) were homogenized in RIPA buffer [10 mM Hepes-NaOH (pH 7.4) containing 150 mM NaCl, 1 mM EDTA, 1% Triton X-100, 0.5% sodium deoxycholate, 0.1% SDS, 1 mM PMSF, 1 mg/ml leupeptin. […] Bound horseradish peroxidase-labeled antibodies were then detected via chemiluminescence (an ECL kit; Pierce, Rockford, Ill., USA). Protein concentrations were determined with the BCA Protein Assay Reagent (Pierce) and Bradford Protein Assay Reagent (Pierce).

SMILES | NEP protein level in brain (immunoblot) [1] | IL-4Rα protein levels in MG5 cells [2]
CN1c2ccccc2N=C(c2ccc(C(=O)O)cc2)c2cc3c(cc21)C(C)(C)CCC3(C)C [HX630, 4-[5H-2,3-(2,5dimethyl-2,5-hexano)-5-methyldibenzo[b,e]-diazepin-11-yl]benzoic acid] | Higher levels | did not increase
CC1(C)CCC(C)(C)c2cc(NC(=O)c3ccc(C(=O)O)cc3)ccc21 [Am80, 4-{(5,6,7,8-tetrahydro-5,5,8,8-tetramethyl-2-naphthalenyl)carbamoyl}benzoic acid] | Higher levels | did not increase
